The target of experiment [1] is T1, HBV core protein (C-terminal truncated core protein, 149 amino acids of the N-terminal assembly domain, BODIPY-FL labelled) (UniProt P03146).
T1 construct: fused on or other part: A single cysteine added after residue 149, at position 150; It carries the BODIPY-FL maleimide label
Briefly: Biochemical capsid assembly assay (fluorescence quenching). A digest of the protocol:
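Fluorescence quenching of BODIPY-FL-labelled core dimers (1.0 to 2.0 μM) in 50 mM HEPES pH 7.5; compounds at 8 concentrations, 0.5 log-unit dilutions from top 100, 31.6 or 10 μM, 0.5% DMSO. Assembly started with NaCl to […]; fluorescence (ex 477/em 525 nm) read after 6 min. EC50 by non-linear regression.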

Another experiment deals with HBV (HepAD38 cells). Briefly: HBV replication assay: determination of HBV DNA from the supernatants of HepAD38 cells. The format is cell-based. To be noted: Hepatitis B virus, 144 h, HBV DNA in HepAD38 supernatant at day 6, qPCR, read-out: Cell activity. As for the experimental part:
Determination of HBV DNA from the Supernatants of HepAD38 Cells
The anti-HBV activity was analysed in the stable transfected cell line HepAD38, which has been described to secrete high levels of HBV virion particles (Ladner et al., 1997). In brief, HepAD38 cells were cultured at 37° C. at 5% CO2 and 95% humidity in 200 μl maintenance medium, which was Dulbecco's modified Eagle's medium/Nutrient Mixture F-12 (Gibco, Karlsruhe), 10% fetal bovine serum (PAN Biotech Aidenbach) supplemented with 50 μg/ml penicillin/streptomycin (Gibco, Karlsruhe), 2 mM L-glutamine (PAN Biotech, Aidenbach), 400 μg/ml G418 (AppliChem, Darmstadt) and 0.3 μg/ml tetracycline. Cells were subcultured once a week in a 1:5 ratio, but were usually not passaged more than ten times. For the assay 60,000 cells were seeded in maintenance medium without any tetracycline into each well of a 96-well plate and treated with serial half-log dilutions of test compound. To minimize edge effects the outer 36 wells of the plate were not used but were filled with assay medium. On each assay plate six wells for the virus control (untreated HepAD38 cells) and six wells for the cell control (HepAD38 cells treated with 0.3 μg/ml tetracycline) were allocated, respectively. In addition, one plate set with reference inhibitors like BAY 41-4109, entecavir, and lamivudine instead of screening compounds were prepared in each experiment. In general, experiments were performed thrice in triplicates. At day 6 HBV DNA from 100 μl filtrated cell culture supernatant (AcroPrep Advance 96 Filter Plate, […] Supor membran, PALL GmbH, Dreieich) was automatically purified on the MagNa Pure LC instrument using the MagNA Pure 96 DNA and Viral NA Small Volume Kit (Roche Diagnostics, Mannheim) according to the instructions of the manufacturer. EC50 values were calculated from relative copy numbers of HBV DNA In brief, 5 μl of the 100 μl eluate containing HBV DNA were subjected to PCR LC480 Probes Master Kit (Roche) together with 1 μM antisense primer […], 0.5 μM sense primer […], 0.3 μM hybprobes […]-FL and LC640-[…]-PH (TIBMolBiol, Berlin) to a final volume of 12.5 μl. The PCR was performed on the Light Cycler 480 real time system (Roche Diagnostics, Mannheim) using the following protocol: Pre-incubation for 1 min at 95° C., amplification: 40 cycles×(10 sec at 95° C., 50 sec at 60° C., 1 sec at 70° C.), cooling for 10 sec at 40° C. Viral load was quantitated against known standards using HBV plasmid DNA of pCH-9/3091 (Nassal et al., 1990, Cell 63: 1357-1363) and the LightCycler 480 SW 1.5 software (Roche Diagnostics, Mannheim) and EC50 values were calculated using non-linear regression with GraphPad Prism 6 (GraphPad Software Inc., La Jolla, USA).
(Quantitative PCR measures a nucleic acid by following its amplification.)

Where [2] appears, read: assembly started with NaCl, fluorescence read after 6 min, read-out: Assembly activity.
Setting [3] is: read-out: Assembly activity, assembly started with NaCl, fluorescence read after 6 min.

Like-named read-outs stand apart in the source and are kept apart here.

The values below come from patent US20220306647A1, “NOVEL INDOLE-2-CARBOXAMIDES ACTIVE AGAINST THE HEPATITUS B VIRUS (HBV)” (AICURIS GMBH & CO. KG, priority 2019, published 2022).

T1 sequence (P03146 whole entry, the tested form may be a part): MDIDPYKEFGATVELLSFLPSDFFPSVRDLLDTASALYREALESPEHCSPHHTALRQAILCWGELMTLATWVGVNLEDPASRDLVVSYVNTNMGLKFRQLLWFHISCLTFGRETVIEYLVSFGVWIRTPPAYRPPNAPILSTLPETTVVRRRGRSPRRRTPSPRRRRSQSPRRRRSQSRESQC

`CN(C(=O)c1cnn2c1CN(C(=O)c1cc3ccccc3[nH]1)CC2)C1(c2cccc(C(=O)O)c2)CC1` [Example 13, 3-{1-[N-methyl-5-(1H-indole-2-carbonyl)-4H,5H,6H,7H-pyrazolo[1,5-a]pyrazine-3-amido]cyclopropyl}benzoic acid]: the IC50 in experiment [1] (setting [2]) is under 5 µM. In the experiment on HBV (HepAD38 cells), the EC50 fell in the range of 1000 to 10000 nM.
Consider `CN1C(=O)c2c3c(nn2CC12CC2)CCN(C(=O)c1cc2ccccc2[nH]1)C3` [Example 14, 12′-(1H-indole-2-carbonyl)-4′-methyl-4′,7′,8′,12′-tetraazaspiro[cyclopropane-1,5′-tricyclo[7.4.0.0^2′7]tridecane]-1′,8′-dien-3′-one], for which, in experiment [1] (setting [2]), the IC50 was under 5 µM. For the same molecule, the EC50 in the experiment on HBV (HepAD38 cells) was under 1000 nM.
The corresponding values for `CN1C(=O)c2c3c(nn2CC12CC2)CCN(C(=O)c1cc2cc(F)c(Cl)cc2[nH]1)C3` [Example 15, 12′-(6-chloro-5-fluoro-1H-indole-2-carbonyl)-4′-methyl-4′,7′,8′,12′-tetraazaspirol[cyclopropane-1,5′-tricyclo[7.4.0.0^2′7]tridecane]-1′,8′-dien-3′-one] are under 5 µM and under 1000 nM.
In the same order, the values of `Cc1cccc2[nH]c(C(=O)N3CCc4nn5c(c4C3)C(=O)N(C)C3(CC3)C5)cc12` [Example 16, 4′-methyl-12′-(4-methyl-1H-indole-2-carbonyl)-4′,7′,8′,12′-tetraazaspiro[cyclopropane-1,5′-tricyclo[7.4.0.0^2′7]tridecane]-1′,8′-dien-3′-one] are under 5 µM and under 1000 nM.
On to `CN1C(=O)c2c3c(nn2CC12CC2)CCN(C(=O)c1cc2c(Cl)cccc2[nH]1)C3` [Example 17, 12′-(4-chloro-1H-indole-2-carbonyl)-4′-methyl-4′,7′,8′,12′-tetraazaspiro[cyclopropane-1,5′-tricyclo[7.4.0.0^2′7]tridecane]-1′,8′-dien-3′-one], for which, in experiment [1] (setting [2]), the IC50 was under 5 µM. Further, the EC50 with HBV (HepAD38 cells) was under 1000 nM.
With `Cc1c(F)ccc2[nH]c(C(=O)N3CCc4nn5c(c4C3)C(=O)N(C)C3(CC3)C5)cc12` [Example 18, 12′-(5-fluoro-4-methyl-1H-indole-2-carbonyl)-4′-methyl-4′,7′,8′,12′-tetraazaspiro[cyclopropane-1,5′-tricyclo[7.4.0.0^2′7]tridecane]-1′,8′-dien-3′-one], the IC50 in experiment [1] (setting [2]) is under 5 µM. The EC50 with HBV (HepAD38 cells) was under 1000 nM.
In the same order, the values of `CN(CCO)C(=O)c1noc2c1CN(C(=O)c1cc3c(Cl)cccc3[nH]1)CC2` [Example 21, 5-(4-chloro-1H-indole-2-carbonyl)-N-(2-hydroxyethyl)-N-methyl-4H,5H,6H,7H-[1,2]oxazolo[4,5-c]pyridine-3-carboxamide] are under 5 µM and under 1000 nM.
The corresponding values for `CN(CCO)C(=O)c1noc2c1CN(C(=O)c1cc3ccccc3[nH]1)CC2` [Example 22, N-(2-hydroxyethyl)-5-(1H-indole-2-carbonyl)-N-methyl-4H,5H,6H,7H-[1,2]oxazolo[4,5-c]pyridine-3-carboxamide] are under 5 µM and under 1000 nM.
In the same order, the values of `CN(CCO)C(=O)c1noc2c1CN(C(=O)c1cc3c(F)cc(F)cc3[nH]1)CC2` [Example 23, 5-(4,6-difluoro-1H-indole-2-carbonyl)-N-(2-hydroxyethyl)-N-methyl-4H,5H,6H,7H-[1,2]oxazolo[4,5-c]pyridine-3-carboxamide] are under 5 µM and under 1000 nM.
`CN(Cc1ccccc1C(=O)O)C(=O)c1[nH]nc2c1CN(C(=O)c1cc3ccccc3[nH]1)CC2` [Example 24, 2-({1-[5-(1H-indole-2-carbonyl)-2H,4H,5H,6H,7H-pyrazolo[4,3-c]pyridin-3-yl]-N-methylformamido}methyl)benzoic acid]: the IC50 in experiment [1] (setting [2]) is under 5 µM. Further, the EC50 in the experiment on HBV (HepAD38 cells) lay in the range of 1000 to 10000 nM.
In the same order, the values of `CN(Cc1ccccn1)C(=O)c1noc2c1CN(C(=O)c1cc3ccccc3[nH]1)CC2` [Example 26, 5-(1H-indole-2-carbonyl)-N-methyl-N-[(pyridin-2-yl)methyl]-4H,5H,6H,7H-[1,2]oxazolo[4,5-c]pyridine-3-carboxamide] are under 5 µM and 1000 to 10000 nM.
In the same order, the values of `CN(C(=O)c1cnn2c1CN(C(=O)c1cc3ccccc3[nH]1)CC2)C1(c2ccccc2C(=O)O)CC1` [Example 30, 2-{1-[N-methyl-5-(1H-indole-2-carbonyl)-4H,5H,6H,7H-pyrazolo[1,5-a]pyrazine-3-amido]cyclopropyl}benzoic acid] are under 5 µM and 1000 to 10000 nM.
Consider `CN(C(=O)c1cnn2c1CN(C(=O)c1cc3ccccc3[nH]1)CC2)C1(c2ccc(C(=O)O)cn2)CC1` [Example 31, 6-{1-[N-methyl-5-(1H-indole-2-carbonyl)-4H,5H,6H,7H-pyrazolo[1,5-a]pyrazine-3-amido]cyclopropyl}pyridine-3-carboxylic acid], for which the IC50 in experiment [1] (setting [2]) was under 5 µM. In the experiment on HBV (HepAD38 cells), the EC50 is under 100000 nM.
The corresponding values for `CN(C(=O)c1cnn2c1CN(C(=O)c1cc3cc(F)c(Cl)cc3[nH]1)CC2)C1(c2cccc(C(=O)O)c2)CC1` [Example 33, 3-{1-[N-methyl-5-(6-chloro-5-fluoro-1H-indole-2-carbonyl)-4H,5H,6H,7H-pyrazolo[1,5-a]pyrazine-3-amido]cyclopropyl}benzoic acid] are under 5 µM and under 1000 nM.
In the same order, the values of `CN(C(=O)c1cnn2c1CN(C(=O)c1cc3ccccc3[nH]1)CC2)C1(Cc2ccc(C(=O)O)cc2)CC1` [Example 34, 4-({1-[N-methyl-5-(1H-indole-2-carbonyl)-4H,5H,6H,7H-pyrazolo[1,5-a]pyrazine-3-amido]cyclopropyl}methyl)benzoic acid] are under 5 µM and 1000 to 10000 nM.
For `Cc1c(F)ccc2[nH]c(C(=O)N3CCn4ncc(C(=O)N(C)C5(c6cccc(C(=O)O)c6)CC5)c4C3)cc12` [Example 35, 3-{1-[N-methyl-5-(5-fluoro-4-methyl-1H-indole-2-carbonyl)-4H,5H,6H,7H-pyrazolo[1,5-a]pyrazine-3-amido]cyclopropyl}benzoic acid], in experiment [1] (setting [3]), the IC50 was under 5 µM. In addition, the EC50 in the experiment with HBV (HepAD38 cells) is under 1000 nM.
For the molecule `CN1C(=O)c2c3c(nn2CC12CC2)CCN(C(=O)c1cc2c(F)cccc2[nH]1)C3` [Example 37, 12′-(4-fluoro-1H-indole-2-carbonyl)-4′-methyl-4′,7′,8′,12′-tetraazaspiro[cyclopropane-1,5′-tricyclo[7.4.0.0^2, □]tridecane]-1′,8′-dien-3′-one], the IC50 in experiment [1] (setting [3]) is under 5 µM. For the same molecule, the EC50 with HBV (HepAD38 cells) is under 1000 nM.
Consider `COCC1(N(C)C(=O)c2onc3c2CN(C(=O)c2cc4ccccc4[nH]2)CC3)CC1` [Example 38, 5-(1H-indole-2-carbonyl)-N-[1-(methoxymethyl)cyclopropyl]-N-methyl-4H,5H,6H,7H-[1,2]oxazolo[4,3-c]pyridine-3-carboxamide], for which the IC50 in experiment [1] (setting [2]) is under 5 µM. For the same molecule, in the experiment with HBV (HepAD38 cells), the EC50 was under 1000 nM.
In the case of `CN(C(=O)c1onc2c1CN(C(=O)c1cc3ccccc3[nH]1)CC2)C1CC1` [Example 39, N-cyclopropyl-5-(1H-indole-2-carbonyl)-N-methyl-4,5,6,7-tetrahydroisoxazolo[4,3-c]pyridine-3-carboxamide], in experiment [1] (setting [3]), the IC50 was under 5 µM. The EC50 with HBV (HepAD38 cells) is under 1000 nM.
Regarding `C[C@@H](NC(=O)c1onc2c1CN(C(=O)c1cc3ccccc3[nH]1)CC2)C(F)(F)F` [Example 40, 5-(1H-indole-2-carbonyl)-N-[(2R)-1,1,1-trifluoropropan-2-yl]-4H,5H,6H,7H-[1,2]oxazolo[4,3-c]pyridine-3-carboxamide], the IC50 in experiment [1] (setting [2]) is under 5 µM. Also, the EC50 in the experiment with HBV (HepAD38 cells) was under 1000 nM.
